Results taken from patent US9428452B2, “Compounds” (Glaxo Group Limited, priority 2012, dated 2016).
Marks after values point to notes of the source that are not given here.

Key:
Format in all cases: cell-based
[1] = system: IL-17A secreted from antiCD3/CD28 stimulated Peripheral Blood Mononuclear cells (PBMC); test: Peripheral Blood Mononucleocyte Cell Assay (PBMC Assay - IL-17); details: Homo sapiens, 48 h, IL-17A release, read-out: mean pIC50 (converted)
Experimental: Peripheral Blood Mononucleocvte Cell Assay (PBMC Assay—IL-17) […]
This assay is designed to measure levels of IL-17A secreted from antiCD3/CD28 stimulated frozen Peripheral Blood Mononuclear cells (PBMC) isolated from human blood with the aim of identifying inhibitors of IL-17A release.
2. The compounds for screening are dispensed into a master plate at 10 mM top concentration which are serially diluted 1:3 across 11 points in DMSO, then 500 nL is transferred into a 384-well flat-bottomed Greiner plate to which 50 uL of cell suspension is added: for the single shot screening the highest concentration of compound is 10^−5M; for 11 point full curve dose response studies the highest concentration is 10^−4 M.
As a low control, DMSO (as supplied, for example, by VWR) (final concentration 1%) in column 6 (16 points).
As a high control, 5-(4-fluorophenyl)-2-ureidothiophene-3-carboxamide (obtainable from, for example, Sigma) at a final concentration of 10^−4 M in DMSO should be used in column 18 (16 points).
9. Make the cell suspension at the concentration 8×10^5 cells/mL to give a final number of 40,000 cells/well.
1. Add well mixed CD3/CD28 Dynabeads (as supplied, for example, by Dynal) to achieve ratio bead:cell=2:1 (ie. a dilution of 1 in 20). Mix thoroughly.
2. Dispense the suspension into the 384 Assay Plates using Multidrop (50 uL per well). If the volume of cell suspension is large, mix the suspension after dispensing into every other plate.
3. Cover the plates with the lids and place them to the humidified incubator (37° C., 5% CO2) for 48 hours.
1. Transfer 10 uL of supernatants from assay plates to the MSD plates using Cybiwell. Ensure that all wells are covered with the solution. Tap the plate gently, if some of the wells are not covered with the supernatant.
3. Add 10 uL of MSD IL-17 detecting antibody using multidrop (1 ug/mL in D-PBS without Ca^2+ and Mg^2+ (supplied, for example, by Gibco)).
4. Cover the plates with adhesive foil and incubated with shaking for 3 hours at room temperature
7. Add 35 uL of MSD Read Buffer T×2 using multidrop.
8. Read plates on MSD MA6000 reader using the 384 well plate protocol as per manufacturer's instructions.

IL-22 mRNA expression = test: Ex-vivo human skin model, IL-22 mRNA expression; details: for Percentage of inhibition of IL-22 mRNA expression: Th17 cytokine cocktail 24 h, RT-PCR
Experimental: (§1) Fresh ex vivo human skin from healthy bariatric patients, that underwent abdominoplasty skin removal, was de-fatted and dermatomed at 750 μm. Dermatomed skin was incubated twice for 5-10 minutes at room temperature in PBS containing a antibiotic/antimycotic solution: Fungizone (Invitrogen #15290018), PSG (Fisher #BW17718R) and Gentamicin (Invitrogen #15750060). Skin was treated aseptically from this point on. Individual skin samples were obtained by 10 mm punch biopsy and placed in a 0.4 μm PCF membrane transwell (Millicell #PIHP01250) containing 30 μl of a 64% bovine collagen solution. After a 30 minute incubation at 37° C., which allows the collagen solution time to set, skin samples on transwells were transferred to 6-well plates (1 sample per well) and the lower chamber filled with 1 ml complete media (Cornification Media)+hydrocortisone (final concentration of 0.4 μg/ml) with or without test compounds at 10 μM (day −3) and allowed to rest overnight (16-18 h) at 37° C. Next, media was aspirated from the lower chamber, replaced with 1 ml complete media without hydrocortisone and incubated at 37° C. for 1 h. This constituted a ‘wash’ step. Following the hydrocortisone washout, media was again aspirated from the lower chamber and replaced with 1.0 ml complete media without hydrocortisone with or without GSK compounds at 10 μM (day −2). Cultures were incubated at 37° C. in a humidified chamber and media was refreshed one more day (day-1). The following day (day-0), cultures were stimulated for 24 h with a freshly made Th17 cytokine cocktail (CD3, 1 μg/ml, CD28, 2 μg/ml, IL-1b, 10 ng/ml, IL-6, 5 ng/ml, TGFb, 1 ng/ml, IL-21, 10 ng/ml, anti-IL-4, 1 μg/ml and anti-INFg, 1 μg/ml) with or without test compounds at 10 μM. Upon harvest (day +1), skin samples were minced with a razor blade and transferred to 1.5 ml RNAse-free tubes with 1 ml RNAlater solution until later analysis by RT-PCR (stored at −80 C).
(§2) Total RNA was isolated from about 30-40 mg of tissue using Qiagen's (Cat #74106) Mini RNA Isolation kit. Briefly, tissue was homogenized in the Precellys-24 machine using 300 μL of RLT buffer supplemented with 1% 2-Beta-Mercapto-Ethanol at 6300 rpm for 30 seconds for 6 cycles with a 2-minute ice break. 600 μL of water containing Proteinase K was added to the homogenate and digested at 55 C for 15 minutes. Digested tissue was spun down for 3 minutes at 10,000×g and the supernantant was used for RNA isolation using Qiagen's RNeasy mini columns according to manufacturer's protocol. 100 ng of RNA was used as template in a 20 μL PCR volume using Applied Biosciences RNA-to-CT 1 Step kit (AB Catalog #4392938) as well as the specific TaqMan probe for each gene to be quantified. Life Technologies FAM labeled Probes Catalog Numbers are as follows: ACTb=Hs01060665_g1, IL-17A=Hs00174383_m1, IL-17F=Hs00369400_m1, IL-22=Hs01574154_m1. All probes used (except for ACTb) expand an Exon. Applied Biosciences' Master Mix has a ROX dye internal control. OneStepPlus PCR machine was used for both the RT step and the 40 amplification cycles. RNA levels of gene of interest's relative expression were calculated using the Delta Delta CT formula.
(§3) First delta: Normalized to ACTb gene expression
(§4) Second delta: Normalized to sample 13 (Day 0+DMSO) for the gene of interest.

IL-17F mRNA expression = test: Ex-vivo human skin model, IL-17F mRNA expression; details: for Percentage of inhibition of IL-17F mRNA expression: Th17 cytokine cocktail 24 h, RT-PCR
Experimental: as §1, §2, §3, §4

IL-17A mRNA expression = test: Ex-vivo human skin model, IL-17A mRNA expression; details: for Percentage of inhibition of IL-17A mRNA expression: Th17 cytokine cocktail 24 h, RT-PCR
Experimental: as §1, §2, §3, §4

[2] = four different donors, compound 10 μM

For CCc1ccc(N(CC(C)C)S(=O)(=O)c2ccc([C@@H](O)CN3CCOCC3)c(CO)c2)cc1 [Example E126, N-(4-ethylphenyl)-4-(1-hydroxy-2-morpholinoethyl)-3-(hydroxymethyl)-N-isobutylbenzenesulfonamide], the IC50 [1] was 794 nM, the “Percentage of inhibition of IL-22 mRNA expression” value (IL-22 mRNA expression; Skin Donor 1, compound 10 μM) was 67% * and the “Percentage of inhibition of IL-22 mRNA expression” value (IL-22 mRNA expression; Skin Donor 2, compound 10 μM) was 58%. The “Percentage of inhibition of IL-22 mRNA expression” value (IL-22 mRNA expression; Skin Donor 3, compound 10 μM) was 60%, the “Percentage of inhibition of IL-22 mRNA expression” value (IL-22 mRNA expression; Skin Donor 4, compound 10 μM) was 58% * and the “gene transcription of il22 (result in words)” value (IL-22 mRNA expression; [2]) was “inhibited”. For the same molecule, the “Percentage of inhibition of IL-17F mRNA expression” value (IL-17F mRNA expression; Skin Donor 1, compound 10 μM) was 67% *, the “Percentage of inhibition of IL-17F mRNA expression” value (IL-17F mRNA expression; Skin Donor 2, compound 10 μM) was 89% * and the “Percentage of inhibition of IL-17F mRNA expression” value (IL-17F mRNA expression; Skin Donor 3, compound 10 μM) was 67% *. For the same molecule, the “Percentage of inhibition of IL-17F mRNA expression” value (IL-17F mRNA expression; Skin Donor 4, compound 10 μM) was 74% *, the “gene transcription of il17f (result in words)” value (IL-17F mRNA expression; [2]) was “inhibited” and the “Percentage of inhibition of IL-17A mRNA expression” value (IL-17A mRNA expression; Skin Donor 1, compound 10 μM) was 76% *. For the same molecule, the “Percentage of inhibition of IL-17A mRNA expression” value (IL-17A mRNA expression; Skin Donor 2, compound 10 μM) was 93% *, the “Percentage of inhibition of IL-17A mRNA expression” value (IL-17A mRNA expression; Skin Donor 3, compound 10 μM) was 60% * and the “Percentage of inhibition of IL-17A mRNA expression” value (IL-17A mRNA expression; Skin Donor 4, compound 10 μM) was 85% *. The “gene transcription of il17a (result in words)” value (IL-17A mRNA expression; [2]) was “inhibited”.
